Reference: patent publication EP4741420A1, “PHARMACEUTICAL COMPOSITION FOR PREVENTING OR TREATING OBESITY COMPRISING GLP ANALOGUE AS ACTIVE INGREDIENT” (priority 2023, dated 2025)
Peptide text beside a SMILES is read from it.

Legend:
[1] = test system: diet-induced obesity (DIO) mouse model; test: DIO mouse model QD: liver weight and steatosis score, H&E (Example 8-2); type: in vivo, mice; details: QD (once daily), 45 nmol/kg/dose
Text: To examine liver weight and steatosis, the liver weight elevated by obesity induction and the degree of steatosis after liver H&E staining were scored from grades 0 to 3 to compare the drug's hepatic efficacy. First, after the test was completed, the animal's liver was excised on the day of necropsy to confirm the liver efficacy of the drug. After measuring the weight of the excised liver, the intermediate lobes were frozen in liquid nitrogen for the subsequent measurement of triglycerides. The remaining portion of the liver was fixed in 10% neutral buffered formalin and subjected to histopathological examination.
For H&E analysis, the liver tissue fixed in the buffered formalin was put into an automatic tissue processor, embedded in paraffin, and then prepared into a paraffin block. Subsequently, the paraffin block was prepared into a tissue section, which was stained with hematoxylin & eosin (H&E). The stained tissue slide was observed using an optical microscope (BX61, Olympus, Japan) and photographed (DP80, Olympus, Japan).
Histopathological quantification of liver tissue was performed by scoring the degree of steatosis on H&E-stained slides from grades 0 to 3. The contents corresponding to each scoring grade are as follows.

[2] = test system: C57BL/6 DIO mice; test: Diet-induced obesity mouse model: blood/serum biochemical tests (Example 3); type: in vivo; details: after 4 weeks, 0.20 mg/kg/dose (dose from Table 3)
Protocol: Here, the body weight and food intake were measured daily.
In addition, after the experiment was completed, blood and serum samples were obtained from each mouse model, and biochemical tests were performed for blood glucose, total cholesterol, high-density lipoprotein (HDL), low-density lipoprotein (LDL), and triglycerides.

[3] = test system: diet-induced obesity (DIO) mouse model; test: DIO mouse model QD: fat weight by tissue (Example 7-3); type: in vivo; details: fat weight of tissue, DIO mice, QD (once daily), 45 nmol/kg/dose
Protocol: (§1) The anti-obesity effects of SEQ ID NO: 1 prepared in Example 1, and SEQ ID NOs: 6 and 7 prepared in Example 4 were analyzed. […] In addition, as an experimental model, a diet-induced obesity (DIO) mouse model fed a high-fat diet for 3 months was used.
To analyze the anti-obesity effect, the amount of fat by tissue was measured postmortem to further confirm the efficacy of the peptide in obesity. Specifically, the epididymal, mesenteric, inguinal, and perirenal tissues of animals euthanized by decapitation were excised to measure the fat weights for each tissue and then photographed.

[4] = test system: C57BL/6 DIO mice; test: Diet-induced obesity mouse model: body weight and food intake (Example 3); type: in vivo; details: 4 weeks administration, 0.20 mg/kg/dose
[5] = test system: diet-induced obesity (DIO) mouse model; test: DIO mouse model QD: liver Oil Red O staining (Example 8-4); type: in vivo; details: DIO mice, QD (once daily), 45 nmol/kg/dose
Protocol: Finally, to confirm the anti-obesity effect in the liver, liver Oil Red O staining analysis was performed. ORO staining is a staining method used to detect triglycerides (fat) in adipose-related diseases, and used to differentiate fat embolism, liposarcoma, hepatic steatosis, and lipid accumulation disorders. In addition, it can also detect lipid complexes, such as phospholipids. For ORO analysis, liver tissue was processed in 30% sucrose in a refrigerator for 3 days to prepare frozen tissue sections, which were used to prepare OCT-embedded frozen blocks. Cryosections were prepared and stained with ORO.

[6] = molecular target: T1, GLP-2 (Homo sapiens, UniProt O95838); test: GLP-2 activity, cell-based cAMP assay (same method as Example 2); details: Example 5, relative to GLP-2
T1 sequence (O95838 1-553): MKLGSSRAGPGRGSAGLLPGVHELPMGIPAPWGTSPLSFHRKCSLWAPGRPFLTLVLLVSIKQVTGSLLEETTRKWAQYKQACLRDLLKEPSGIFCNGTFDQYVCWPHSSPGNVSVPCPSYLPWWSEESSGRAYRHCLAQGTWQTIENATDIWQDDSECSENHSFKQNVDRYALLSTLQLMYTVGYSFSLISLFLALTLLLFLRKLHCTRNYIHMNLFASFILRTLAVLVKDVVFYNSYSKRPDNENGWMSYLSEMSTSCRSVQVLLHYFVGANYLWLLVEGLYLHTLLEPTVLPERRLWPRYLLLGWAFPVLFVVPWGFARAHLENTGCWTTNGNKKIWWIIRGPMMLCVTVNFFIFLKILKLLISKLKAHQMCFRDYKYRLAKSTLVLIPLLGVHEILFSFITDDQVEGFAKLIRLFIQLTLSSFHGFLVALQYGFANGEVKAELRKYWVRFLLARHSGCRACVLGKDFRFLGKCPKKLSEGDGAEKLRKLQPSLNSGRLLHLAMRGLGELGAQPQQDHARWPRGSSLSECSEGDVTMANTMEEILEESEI

[7] = test system: diet-induced obesity (DIO) mouse model; test: DIO mouse model QD: weight loss and cumulative food intake (Example 7-1); type: in vivo; details: DIO mice, QD (once daily), 4-week administration, 45 nmol/kg/dose
Protocol: The obesity treatment effect of the long-acting GLP analog prepared in Example 1 was evaluated. Specifically, an obesity animal model was prepared to confirm the obesity treatment effect, and after administering a certain amount of material, the model was subjected to measurement of a body weight and the change in food intake, and biochemical tests. First, to establish a diet-induced obesity mouse model, C57BL/6 DIO mice were fed a high-fat diet for 12 weeks, resulting in a body weight that was 130% that of the control (DIO model). Afterward, the mice were grouped at a specific time point to determine the average weight of the DIO model (46.2±2.2), followed by drug administration to the mice for 4 weeks. Here, the body weight and food intake were measured daily.
as §1
To analyze the anti-obesity effect, first, the comparative analysis of weight loss effect and cumulative food intake was conducted. The experimental method was the same as described in Example 3.

[8] = molecular target: GLP-1R (Homo sapiens, UniProt P43220); test: GLP-1 activation: cell-based cAMP assay in GLP-1R/CHO cells
GLP-1R, sequence (P43220 24-463): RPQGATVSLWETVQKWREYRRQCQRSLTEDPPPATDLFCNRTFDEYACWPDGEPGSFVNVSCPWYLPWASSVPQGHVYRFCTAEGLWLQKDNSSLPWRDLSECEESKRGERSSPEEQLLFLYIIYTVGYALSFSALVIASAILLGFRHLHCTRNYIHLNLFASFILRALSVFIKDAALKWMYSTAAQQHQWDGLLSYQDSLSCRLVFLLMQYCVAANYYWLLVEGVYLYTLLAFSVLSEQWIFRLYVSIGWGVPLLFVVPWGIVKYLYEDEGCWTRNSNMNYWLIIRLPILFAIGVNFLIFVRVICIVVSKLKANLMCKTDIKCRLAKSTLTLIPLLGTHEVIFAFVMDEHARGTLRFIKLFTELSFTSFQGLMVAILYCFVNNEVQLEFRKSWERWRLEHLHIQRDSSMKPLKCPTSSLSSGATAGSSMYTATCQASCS

[9] = test system: diet-induced obesity (DIO) mouse model; test: DIO mouse model QD: hepatic triglyceride measurement (Example 8-3); type: in vivo; details: liver tissue, DIO mice, QD (once daily), 45 nmol/kg/dose
Protocol: To measure hepatic triglyceride levels, triglycerides in liver tissue excised on the necropsy day were analyzed using a measurement kit (Biomax, Cat no. BM-TGR-100).

CCCCCCCCCCCCCCCC(=O)N[C@@H](CCC(=O)NCCCC[C@H](NC(=O)[C@H](CCCCN)NC(=O)[C@H](CC(=O)O)NC(=O)[C@@H](NC(=O)[C@@H](NC(=O)[C@H](CCCCN)NC(=O)[C@@H](NC(=O)[C@H](CCC(N)=O)NC(=O)[C@@H](NC(=O)[C@H](CC(C)C)NC(=O)[C@H](Cc1c[nH]c2ccccc12)NC(=O)[C@H](CC(N)=O)NC(=O)[C@@H](NC(=O)[C@H](Cc1ccccc1)NC(=O)[C@H](CC(=O)O)NC(=O)[C@H](CCCNC(=N)N)NC(=O)[C@H](C)NC(=O)[C@H](C)NC(=O)[C@H](CC(C)C)NC(=O)[C@H](C)NC(=O)[C@H](CC(=O)O)NC(=O)[C@H](CC(C)C)NC(=O)[C@H](Cc1ccc(O)cc1)NC(=O)[C@@H](NC(=O)[C@H](CO)NC(=O)[C@H](CC(C)C)NC(=O)[C@H](CC(=O)O)NC(=O)[C@H](CO)NC(=O)[C@@H](NC(=O)[C@H](Cc1ccccc1)NC(=O)[C@@H](NC(=O)CNC(=O)[C@H](CCC(=O)O)NC(=O)CNC(=O)[C@@H](N)Cc1c[nH]cn1)[C@@H](C)O)[C@@H](C)O)[C@@H](C)O)[C@@H](C)CC)[C@@H](C)CC)[C@@H](C)O)[C@@H](C)CC)[C@@H](C)O)C(=O)O)C(=O)O [HU020K2FA] (HELM PEPTIDE1{H.G.E.G.T.F.T.S.D.L.S.T.Y.L.D.A.L.A.A.R.D.F.I.N.W.L.I.Q.T.K.I.T.D.K.K}|PEPTIDE2{[CCCCCCCCCCCCCCCC(=O)[*:2]].[gGlu]}$PEPTIDE1,PEPTIDE2,35:R3-2:R2$$$V2.0; N-terminus and C-terminus assumed)
Liver weight ([1]; DIO mice): 1.58±0.10 | Hepatic steatosis test (Score 0~3) ([1]; H&E, mean of grades 0 to 3, DIO mice): 0.97±0.47 | Blood glucose [2]: 192.0 ± 20.2 mg/dL | High-density lipoprotein [2]: 76.0 ± 4.0 mg/dL | Low-density lipoprotein [2]: 9.8 ± 1.5 mg/dL | Toal cholesterol [2]: 134.8 ± 10.7 mg/dL | Triglyceride [2]: 13.6 ± 4.8 mg/dL | Epididymal [3]: 1.71±0.16 | Inguinal [3]: 2.37±0.21 | Mesentric [3]: 0.74±0.21 | Perirenal [3]: 0.33±0.08 | Cumulative food intake [4]: 55.3 ± 4.0 g | Weight [4]: 36.6 ± 4.0 g | Weight change (%) ([4]; compared to day 0): -19.4±4.7% | ORO positive area (%) [5]: 1.41±0.66% | GLP-2 activity Compared to GLP-2 [6]: ~ 0.02% | Comparison of weight change (%) [7]: -16.0±3.2% | Weight [7]: 37.5 ± 2.6 g | Weight (%) (Normalized to DIO vehicle) [7]: 80.3±4.4% | Food intake ([7]; cumulative): 16.0 ± 1.8 g | GLP-1 activity Compared to GLP-1 (Exendin-4) ([8]; Example 5, relative to Exendin-4): 23.6% | Average (n=4) Relative to GLP-1 (Exendin-4) % ([8]; GLP-1R/CHO cells, cAMP, relative to Exendin-4 (Example 2)): 63.4±29.4% | Liver TG levels (nmol/µ) [9]: 0.81±0.11 nmol/µ
